Data set [1] concerns Mouse B16 melanoma cells. Description: Melanin formation inhibition test. In kind it is cell-based. To be noted: for Ratio of Amount of Melanin (%): 3 days, solvent-only group = 100. As for the experimental part: As will be described in detail in the subsequent examples, screening for aromatic components of the melanin formation inhibitor was carried out by allowing various candidate aromatics to act on B16 melanoma, and evaluating cytotoxicity and the ratio of the amount of melanin (%) in comparison with a control (addition of solvent only). Mouse B16 melanoma cells were disseminated in a 6-well plate at 100,000 cells/well. On the following day, a test substance solution (solvent: ethyl alcohol) was added and used in a cell proliferation test and melanin formation inhibition test. A nature identical synthetic aromatic in the form of phenylethyl cinnamate (Toyotama International Inc.) was used for the test substance, and it was used in the tests indicated below. The medium was aspirated off 3 days after addition of test substance, and after washing using a buffer (50 mM phosphate buffer, pH 6.8), 1 M NaOH solution was added to lyse the cells followed by measurement of absorbance at 475 nm. The ratio of the amount of melanin (%) of a test substance addition group based on a value of 100 for a test substance non-addition group (addition of solvent only) was calculated using that value as a relative value of the amount of melanin. A lower value for the ratio of the amount of melanin means higher melanin formation inhibitory effects.

In data set [2] the test system is Mouse B16 melanoma cells. Kind of data set: Cell proliferation test (alamar blue). It is filed as cell-based. The conditions noted are these: for No. of Cells (%): 3 days, solvent-only group = 100. As for the experimental part:
As will be described in detail in the subsequent examples, screening for aromatic components of the melanin formation inhibitor was carried out by allowing various candidate aromatics to act on B16 melanoma, and evaluating cytotoxicity and the ratio of the amount of melanin (%) in comparison with a control (addition of solvent only). Mouse B16 melanoma cells were disseminated in a 6-well plate at 100,000 cells/well. On the following day, a test substance solution (solvent: ethyl alcohol) was added and used in a cell proliferation test and melanin formation inhibition test. A nature identical synthetic aromatic in the form of phenylethyl cinnamate (Toyotama International Inc.) was used for the test substance, and it was used in the tests indicated below. After aspirating off the medium 3 days after adding the test substance solution, 1 ml of EMEM medium containing 10% alamar blue solution was added and allowed to react at 37° C. 30 minutes later, 100 μl were transferred to a […] followed by measurement of fluorescence at an excitation wavelength of 544 nm and measurement wavelength of 590 nm. The ratio of the number of cells (% number of cells) of a test substance addition group based on a value of 100 for a test substance non-addition group (addition of solvent only) was calculated by using that value as a relative value of the number of viable cells. A higher value for % number of cells means a lower level of cytotoxicity.
In general terms: The colour change of resazurin is a common sign of viable cells or microbes.

[3] abbreviates: test substance final concentration 1 ppm.
The mark [4] stands for this setting: test substance final concentration 2 ppm.

The results in this text go back to US9278058B2, “Melanin production inhibitor” (Shiseido Company, Ltd., priority 2012, dated 2016).

In the case of `O=C(/C=C/c1ccccc1)OCCc1ccccc1` [Phenylethyl Cinnamate, 2-Phenylethyl 3-phenyl • propenoate], the “melanin formation inhibitory effects (in words)” value in the data set with Mouse B16 melanoma cells [1] (summary of Table 1 results) is “superior melanin formation inhibitory effects”. The “Ratio of Amount of Melanin (%)” value in the data set on Mouse B16 melanoma cells [1] (setting [3]) stood at 82%; with Mouse B16 melanoma cells [1] (setting [4]) it was 74%. The “cytotoxicity (in words)” value with Mouse B16 melanoma cells [2] (summary of Table 1 results) is on record as “hardly any cytotoxicity”. For the same molecule, the “No. of Cells (%)” value with Mouse B16 melanoma cells [2] (setting [3]) came to 94%; in the data set on Mouse B16 melanoma cells [2] (setting [4]) it was 92%.
